Results: US8138145B2, “Hybrid oligomers, their preparation process and pharmaceutical compositions containing them” (Centre National de la Recherche Scientifique (SNRS), priority 2005, dated 2012)
In brackets after ≈: the same amount, converted by molar mass.

Key:
Assay type in all cases: cell-based
[1] = test system: clinical isolated methicillin resistant Staphylococcus Aureus strain; test: microbe, parasite or virus in culture; conditions: Mueller-Hinton broth, 37° C., 18 to 20 hours; for Minimal bactericidal concentration, clinical isolated methicillin resistant Staphylococcus Aureus strain: plate counting on sheep blood agar
Method: (§1) Four strains were selected: Escherichia Coli ATCC 25922, Staphylococcus Aureus ATCC 25923, Pseudomonas Aeruginosa ATCC 27853 and a clinical isolated methicillin resistant Staphylococcus Aureus strain. Antibacterial activity of the molecules was tested by dilution method in Mueller-Hinton broth in order to determine the minimal inhibitory concentration (MIC) and the minimal bactericidal concentration (MBC). At least two independent assays were done. Stock solutions were obtained by solubilizing molecule powders in distilled water at concentration of 2.56 mg/mL and serial 2-fold diluted solutions were prepared. Bacterial inoculum was standardized by using direct suspensions of colonies from overnight growth in saline adjusted to a turbidity matching the 0.5 McFarland standard, and diluted to obtain a density comprised between 10^5 CFU/mL and 10^7 CFU/mL. Tubes containing 900 μL of inoculum with 100 μL of molecules solutions were incubated in air at 37° C. for 18 to 20 hours. Purity and inoculum density as well as percentage of viable bacteria in limpid tubes were checked by plate counting on sheep blood agar. Broth not containing any molecule solution was inoculated with each selected bacterial strain as a control for organism viability (growth control). The susceptibility of S. Aureus strains against vancomycin was used as an internal control as well as the activity of melittin.

[2] = test system: Staphylococcus Aureus ATCC 25923; test: microbe, parasite or virus in culture; conditions: for Minimal inhibitory concentration, Staphylococcus Aureus ATCC / Minimal bactericidal concentration, Staphylococcus Aureus ATCC: Mueller-Hinton broth, 37° C., 18 to 20 hours; for Minimal bactericidal concentration, Staphylococcus Aureus ATCC: plate counting on sheep blood agar
Method: as §1

[3] = test system: Pseudomonas Aeruginosa ATCC 27853; conditions: Mueller-Hinton broth, 37° C., 18 to 20 hours; for Minimal bactericidal concentration, Pseudomonas Aeruginosa ATCC 27853: plate counting on sheep blood agar
Method: as §1

[4] = test system: Escherichia Coli ATCC 25922; conditions: Mueller-Hinton broth, 37° C., 18 to 20 hours; for Minimal bactericidal concentration, Escherichia Coli ATCC 25922: plate counting on sheep blood agar
Method: as §1

Compound | Minimal inhibitory concentration, clinical isolated methicillin resistant Staphylococcus Aureus strain [1] | Minimal bactericidal concentration, clinical isolated methicillin resistant Staphylococcus Aureus strain [1] | Minimal inhibitory concentration, Staphylococcus Aureus ATCC [2] | Minimal bactericidal concentration, Staphylococcus Aureus ATCC [2] | Minimal inhibitory concentration, Pseudomonas Aeruginosa ATCC 27853 [3] | Minimal bactericidal concentration, Pseudomonas Aeruginosa ATCC 27853 [3] | Minimal inhibitory concentration, Escherichia Coli ATCC 25922 [4] | Minimal bactericidal concentration, Escherichia Coli ATCC 25922 [4] | MIC ([1]; Staphylococcus aureus, read-out: Minimal inhibitory concentration, clinical isolated methicillin resistant Staphylococcus Aureus strain) | MIC ([2]; Staphylococcus aureus, ATCC25923, read-out: Minimal inhibitory concentration, Staphylococcus Aureus ATCC)
CC(C)NC(=O)N[C@H](CNC(=O)N[C@@H](CCCCN)CNC(=O)N[C@H](CNC(=O)N[C@H](CNC(=O)N[C@@H](CCCCN)CNC(=O)N[C@H](CNC(=O)N[C@@H](CCCCN)CNC(=O)N[C@H](CCC(N)=O)C(C)C)Cc1c[nH]c2ccccc12)C(C)C)Cc1c[nH]c2ccccc12)C(C)C [Mol-4] | 16 µg/mL (≈ 11.5 µM) | 64 µg/mL (≈ 46.1 µM) | 8 µg/mL (≈ 5.76 µM) | <16 µg/mL | 128 µg/mL (≈ 92.2 µM) | 256 µg/mL (≈ 184 µM) | 32 µg/mL (≈ 23.1 µM) | 64 µg/mL (≈ 46.1 µM) |  | 
CC(C)NC(=O)N[C@H](CNC(=O)N[C@@H](CCCCN)CNC(=O)N[C@H](CNC(=O)N[C@H](CNC(=O)N[C@@H](CCCCN)CNC(=O)N[C@H](CNC(=O)N[C@@H](CCCCN)CNC(N)=O)Cc1c[nH]c2ccccc12)C(C)C)Cc1c[nH]c2ccccc12)C(C)C [Mol-8] |  |  | 32 µg/mL (≈ 25.4 µM) | 32 µg/mL (≈ 25.4 µM) | 64 µg/mL (≈ 50.8 µM) | >256 µg/mL | 32 µg/mL (≈ 25.4 µM) | 256 µg/mL (≈ 203 µM) |  | 
CC[C@H](C)[C@H](NC(=O)CN)C(=O)NCC(=O)N[C@@H](C)C(=O)N[C@H](C(=O)N[C@@H](CC(C)C)C(=O)N[C@@H](CCCCN)C(=O)N[C@H](C(=O)N[C@@H](CC(C)C)C(=O)N[C@H](C(=O)N[C@H](C(=O)NCC(=O)N[C@@H](CC(C)C)C(=O)N1CCC[C@H]1C(=O)N[C@@H](C)C(=O)N[C@@H](CC(C)C)C(=O)N[C@H](C(=O)N[C@@H](CO)C(=O)N[C@@H](Cc1c[nH]c2ccccc12)C(=O)N[C@H](C(=O)N[C@@H](CCCCN)C(=O)N[C@@H](CCCNC(=N)N)C(=O)N[C@@H](CCCCN)C(=O)N[C@@H](CCCNC(=N)N)C(=O)N[C@@H](CCC(N)=O)C(=O)N[C@@H](CCC(N)=O)C(N)=O)[C@@H](C)CC)[C@@H](C)CC)[C@@H](C)O)[C@@H](C)O)C(C)C)C(C)C [mellitin, reference compound] | 32 µg/mL (≈ 11.2 µM) | 128 µg/mL (≈ 45 µM) |  |  | >256 µg/mL | >256 µg/mL |  | >256 µg/mL |  | 
CN[C@H](CC(C)C)C(=O)N[C@H]1C(=O)N[C@@H](CC(N)=O)C(=O)N[C@H]2C(=O)N[C@H]3C(=O)N[C@H](C(=O)N[C@H](C(=O)O)c4cc(O)cc(O)c4-c4cc3ccc4O)[C@H](O)c3ccc(c(Cl)c3)Oc3cc2cc(c3O[C@@H]2O[C@H](CO)[C@@H](O)[C@H](O)[C@H]2O[C@H]2C[C@](C)(N)[C@H](O)[C@H](C)O2)Oc2ccc(cc2Cl)[C@H]1O [vancomycin, reference compound] |  |  |  |  |  |  |  |  | 1 µg/mL (≈ 0.69 µM) | 2 µg/mL (≈ 1.38 µM)
